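How tested: cells in 96-well plates exposed to compound for 48 hours at five concentrations. At the TGI there is no net growth.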
Columns and labels:
Assay in all cases: NCI tumour cell line growth inhibition, 48 h
HOP-92 NSCLC = tested on: HOP-92 NSCLC
RPMI-8226 leukemia = tested on: RPMI-8226 leukemia
NCI-H522 lung = tested on: NCI-H522 lung
786-0 renal = tested on: 786-0 renal
SNB-19 CNS = tested on: SNB-19 CNS
RXF-631 renal = tested on: RXF-631 renal
HL-60(TB) leukemia = tested on: HL-60(TB) leukemia
SK-MEL-2 melanoma = tested on: SK-MEL-2 melanoma
NCI-H460 lung = tested on: NCI-H460 lung
SF-295 CNS = tested on: SF-295 CNS
OVCAR-5 ovarian = tested on: OVCAR-5 ovarian
SNB-75 CNS = tested on: SNB-75 CNS
SK-MEL-28 melanoma = tested on: SK-MEL-28 melanoma
RXF 393 renal = tested on: RXF 393 renal
EKVX NSCLC = tested on: EKVX NSCLC
SR leukemia = tested on: SR leukemia
DLD-1 colon = tested on: DLD-1 colon
K-562 leukemia = tested on: K-562 leukemia
UO-31 renal = tested on: UO-31 renal
MOLT-4 leukemia = tested on: MOLT-4 leukemia
UACC-62 melanoma = tested on: UACC-62 melanoma
OVCAR-4 ovarian = tested on: OVCAR-4 ovarian
KM12 colon = tested on: KM12 colon
HOP-18 NSCLC = tested on: HOP-18 NSCLC
HOP-62 NSCLC = tested on: HOP-62 NSCLC
SK-OV-3 ovarian = tested on: SK-OV-3 ovarian
M14 melanoma = tested on: M14 melanoma
UACC-257 melanoma = tested on: UACC-257 melanoma
HT29 colon = tested on: HT29 colon
LOX IMVI melanoma = tested on: LOX IMVI melanoma
SK-MEL-5 melanoma = tested on: SK-MEL-5 melanoma
IGROV1 ovarian = tested on: IGROV1 ovarian
DMS 273 small cell lung = tested on: DMS 273 small cell lung
SF-539 CNS = tested on: SF-539 CNS
SF-268 CNS = tested on: SF-268 CNS
OVCAR-8 ovarian = tested on: OVCAR-8 ovarian
KM20L2 colon = tested on: KM20L2 colon
M19-MEL melanoma = tested on: M19-MEL melanoma
MALME-3M melanoma = tested on: MALME-3M melanoma
NCI-H23 lung = tested on: NCI-H23 lung
SW-620 colon = tested on: SW-620 colon
SNB-78 CNS = tested on: SNB-78 CNS
HCT-15 colon = tested on: HCT-15 colon
NCI-H226 lung = tested on: NCI-H226 lung
HCC-2998 colon = tested on: HCC-2998 colon
A498 renal = tested on: A498 renal
OVCAR-3 ovarian = tested on: OVCAR-3 ovarian
XF 498 CNS = tested on: XF 498 CNS
U251 CNS = tested on: U251 CNS
LXFL 529 NSCLC = tested on: LXFL 529 NSCLC
HCT-116 colon = tested on: HCT-116 colon
DMS 114 small cell lung = tested on: DMS 114 small cell lung
TK-10 renal = tested on: TK-10 renal
SN12C renal = tested on: SN12C renal
COLO 205 colon = tested on: COLO 205 colon
CCRF-CEM leukemia = tested on: CCRF-CEM leukemia
ACHN renal = tested on: ACHN renal
CAKI-1 renal = tested on: CAKI-1 renal
A549 NSCLC = tested on: A549 NSCLC
MCF7 breast = tested on: MCF7 breast
T-47D breast = tested on: T-47D breast
NCI/ADR-RES ovarian = tested on: NCI/ADR-RES ovarian
DU-145 prostate = tested on: DU-145 prostate
MDA-MB-435 = tested on: MDA-MB-435
MDA-N = tested on: MDA-N
MDA-MB-231 breast = tested on: MDA-MB-231 breast
PC-3 prostate = tested on: PC-3 prostate
BT-549 breast = tested on: BT-549 breast

BrC1=CC=C2NC=CC3=CC=NC1C32 (stereo unspecified)
TGI (HOP-92 NSCLC): 71.2 µM
TGI (RPMI-8226 leukemia): 37.8 µM
TGI (NCI-H522 lung): 27.3 µM
TGI (786-0 renal): > 100 µM
TGI (SNB-19 CNS): > 75 µM
TGI (RXF-631 renal): > 100 µM
TGI (HL-60(TB) leukemia): 12.1 µM
TGI (SK-MEL-2 melanoma): 56.9 µM
TGI (NCI-H460 lung): 17.9 µM
TGI (SF-295 CNS): > 100 µM
TGI (OVCAR-5 ovarian): > 75.5 µM
TGI (SNB-75 CNS): 98.9 µM
TGI (SK-MEL-28 melanoma): > 100 µM
TGI (RXF 393 renal): 51.7 µM
TGI (EKVX NSCLC): > 96.3 µM
TGI (SR leukemia): 26 µM
TGI (DLD-1 colon): > 65.2 µM
TGI (K-562 leukemia): 52.8 µM
TGI (UO-31 renal): 51.3 µM
TGI (MOLT-4 leukemia): 15.6 µM
TGI (UACC-62 melanoma): 22.6 µM
TGI (OVCAR-4 ovarian): 97.3 µM
TGI (KM12 colon): > 100 µM
TGI (HOP-18 NSCLC): 66.8 µM
TGI (HOP-62 NSCLC): > 100 µM
TGI (SK-OV-3 ovarian): > 100 µM
TGI (M14 melanoma): 56.2 µM
TGI (UACC-257 melanoma): 98.8 µM
TGI (HT29 colon): > 66.2 µM
TGI (LOX IMVI melanoma): 21.4 µM
TGI (SK-MEL-5 melanoma): 45.4 µM
TGI (IGROV1 ovarian): > 100 µM
TGI (DMS 273 small cell lung): > 92.5 µM
TGI (SF-539 CNS): > 100 µM
TGI (SF-268 CNS): > 92.5 µM
TGI (OVCAR-8 ovarian): > 94 µM
TGI (KM20L2 colon): > 100 µM
TGI (M19-MEL melanoma): 30.1 µM
TGI (MALME-3M melanoma): 67.1 µM
TGI (NCI-H23 lung): > 82.8 µM
TGI (SW-620 colon): > 60.6 µM
TGI (SNB-78 CNS): > 100 µM
TGI (HCT-15 colon): > 100 µM
TGI (NCI-H226 lung): 45.9 µM
TGI (HCC-2998 colon): > 100 µM
TGI (A498 renal): 85.4 µM
TGI (OVCAR-3 ovarian): 80.6 µM
TGI (XF 498 CNS): 48 µM
TGI (U251 CNS): > 100 µM
TGI (LXFL 529 NSCLC): > 70 µM
TGI (HCT-116 colon): 21.1 µM
TGI (DMS 114 small cell lung): 58.1 µM
TGI (TK-10 renal): 99.8 µM
TGI (SN12C renal): > 100 µM
TGI (COLO 205 colon): 58.5 µM
TGI (CCRF-CEM leukemia): 28.6 µM
TGI (ACHN renal): > 93.8 µM

Cc1ccccc1C(=O)c1ccccc1O
TGI (HOP-92 NSCLC): > 100 µM
TGI (786-0 renal): > 100 µM
TGI (SNB-19 CNS): > 100 µM
TGI (RXF-631 renal): > 100 µM
TGI (HL-60(TB) leukemia): > 100 µM
TGI (SK-MEL-2 melanoma): > 100 µM
TGI (NCI-H460 lung): > 100 µM
TGI (CAKI-1 renal): > 100 µM
TGI (SF-295 CNS): > 100 µM
TGI (OVCAR-5 ovarian): > 100 µM
TGI (SNB-75 CNS): > 100 µM
TGI (SK-MEL-28 melanoma): > 100 µM
TGI (RXF 393 renal): > 100 µM
TGI (A549 NSCLC): > 100 µM
TGI (EKVX NSCLC): > 100 µM
TGI (DLD-1 colon): > 100 µM
TGI (K-562 leukemia): > 100 µM
TGI (UO-31 renal): > 100 µM
TGI (MOLT-4 leukemia): > 100 µM
TGI (UACC-62 melanoma): > 100 µM
TGI (OVCAR-4 ovarian): > 100 µM
TGI (KM12 colon): > 100 µM
TGI (HOP-18 NSCLC): > 100 µM
TGI (HOP-62 NSCLC): > 100 µM
TGI (SK-OV-3 ovarian): > 100 µM
TGI (M14 melanoma): > 100 µM
TGI (UACC-257 melanoma): > 100 µM
TGI (HT29 colon): > 100 µM
TGI (LOX IMVI melanoma): > 100 µM
TGI (SK-MEL-5 melanoma): > 100 µM
TGI (IGROV1 ovarian): > 100 µM
TGI (DMS 273 small cell lung): > 100 µM
TGI (SF-539 CNS): > 100 µM
TGI (SF-268 CNS): > 100 µM
TGI (OVCAR-8 ovarian): > 100 µM
TGI (KM20L2 colon): > 100 µM
TGI (M19-MEL melanoma): > 100 µM
TGI (MALME-3M melanoma): > 100 µM
TGI (NCI-H23 lung): > 100 µM
TGI (SW-620 colon): > 100 µM
TGI (SNB-78 CNS): > 100 µM
TGI (HCT-15 colon): > 100 µM
TGI (NCI-H226 lung): > 100 µM
TGI (HCC-2998 colon): > 100 µM
TGI (A498 renal): > 100 µM
TGI (OVCAR-3 ovarian): > 100 µM
TGI (XF 498 CNS): > 100 µM
TGI (U251 CNS): > 100 µM
TGI (LXFL 529 NSCLC): > 100 µM
TGI (HCT-116 colon): > 100 µM
TGI (DMS 114 small cell lung): > 100 µM
TGI (TK-10 renal): > 100 µM
TGI (SN12C renal): > 100 µM
TGI (COLO 205 colon): > 100 µM
TGI (CCRF-CEM leukemia): > 100 µM
TGI (ACHN renal): > 100 µM

CCOC(=O)N1CCc2cc(OC)c(OC)c3c2c1cc1cc(OC)c(OC)cc13
TGI (HOP-92 NSCLC): 44.8 µM
TGI (MCF7 breast): 32.8 µM
TGI (RPMI-8226 leukemia): 60.9 µM
TGI (NCI-H522 lung): 4.3 µM
TGI (786-0 renal): > 100 µM
TGI (SNB-19 CNS): > 100 µM
TGI (T-47D breast): > 60.2 µM
TGI (RXF-631 renal): 66 µM
TGI (HL-60(TB) leukemia): > 100 µM
TGI (SK-MEL-2 melanoma): > 51.8 µM
TGI (NCI/ADR-RES ovarian): 5.37 µM
TGI (DU-145 prostate): > 100 µM
TGI (NCI-H460 lung): 28.5 µM
TGI (MDA-MB-435): 2.54 µM
TGI (CAKI-1 renal): 84.2 µM
TGI (SF-295 CNS): 35.2 µM
TGI (MDA-N): 0.599 µM
TGI (OVCAR-5 ovarian): > 100 µM
TGI (SNB-75 CNS): 8.4 µM
TGI (SK-MEL-28 melanoma): > 100 µM
TGI (RXF 393 renal): 12.1 µM
TGI (A549 NSCLC): > 100 µM
TGI (EKVX NSCLC): > 100 µM
TGI (SR leukemia): > 38.6 µM
TGI (DLD-1 colon): > 100 µM
TGI (K-562 leukemia): > 75.9 µM
TGI (UO-31 renal): > 100 µM
TGI (MOLT-4 leukemia): > 100 µM
TGI (UACC-62 melanoma): 63 µM
TGI (OVCAR-4 ovarian): > 95.3 µM
TGI (KM12 colon): 67.7 µM
TGI (MDA-MB-231 breast): > 100 µM
TGI (HOP-18 NSCLC): > 100 µM
TGI (HOP-62 NSCLC): > 83.6 µM
TGI (SK-OV-3 ovarian): > 51.1 µM
TGI (M14 melanoma): 63.6 µM
TGI (UACC-257 melanoma): > 81.7 µM
TGI (HT29 colon): 21.6 µM
TGI (LOX IMVI melanoma): 52.3 µM
TGI (SK-MEL-5 melanoma): 32.9 µM
TGI (PC-3 prostate): > 100 µM
TGI (IGROV1 ovarian): > 100 µM
TGI (DMS 273 small cell lung): > 45.2 µM
TGI (SF-539 CNS): 9.17 µM
TGI (SF-268 CNS): > 100 µM
TGI (OVCAR-8 ovarian): > 100 µM
TGI (BT-549 breast): 3.65 µM
TGI (KM20L2 colon): 7.16 µM
TGI (M19-MEL melanoma): > 100 µM
TGI (MALME-3M melanoma): 51.5 µM
TGI (NCI-H23 lung): 55.6 µM
TGI (SW-620 colon): 81.1 µM
TGI (SNB-78 CNS): > 100 µM
TGI (HCT-15 colon): 37.9 µM
TGI (NCI-H226 lung): > 100 µM
TGI (HCC-2998 colon): 55.6 µM
TGI (A498 renal): 14.7 µM
TGI (OVCAR-3 ovarian): 8.64 µM
TGI (XF 498 CNS): 69 µM
TGI (U251 CNS): 67.1 µM
TGI (LXFL 529 NSCLC): > 100 µM
TGI (HCT-116 colon): 30.7 µM
TGI (DMS 114 small cell lung): 7.1 µM
TGI (TK-10 renal): > 100 µM
TGI (SN12C renal): > 100 µM
TGI (COLO 205 colon): 9.06 µM
TGI (CCRF-CEM leukemia): > 58.3 µM
TGI (ACHN renal): > 95 µM

Reference: PubChem BioAssay (NCI)
